According to patent publication EP3789378A1, “PIPERIDINES OR PIPERIDONES SUBSTITUTED WITH UREA AND HETEROARYL” (Grünenthal GmbH, priority 2019, dated 2021):
pEC50: −log10 of the molar value.

Target: T1, h FPR2 (Homo sapiens, UniProt P25090)
T1 construct: expressed in transfected cells
T1 sequence (P25090 1-351): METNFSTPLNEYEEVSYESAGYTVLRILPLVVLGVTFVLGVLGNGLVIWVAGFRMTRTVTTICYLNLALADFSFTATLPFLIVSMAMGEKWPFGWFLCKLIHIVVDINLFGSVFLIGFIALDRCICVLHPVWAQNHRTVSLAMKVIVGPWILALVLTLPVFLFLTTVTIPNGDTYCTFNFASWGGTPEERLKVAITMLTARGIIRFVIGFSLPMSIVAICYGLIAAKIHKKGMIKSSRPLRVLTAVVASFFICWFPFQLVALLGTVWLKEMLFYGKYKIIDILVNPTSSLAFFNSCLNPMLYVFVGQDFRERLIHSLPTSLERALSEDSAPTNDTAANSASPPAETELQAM
Assay: Agonistic activity in hFPR2-Aq-CHO cells (FLIPR Calcium 5 fluorescence assay)
Format: cell-based
Conditions: 11 point half log dilution, final assay concentration from 10µM
Method: After washing, the cells are plated at 10,000 cells per well in 40 µL complete medium in a 384-well sterile clear bottom black plate and incubated in a 5% CO2 incubator at 37°C for 18 hours. Plating media is removed from each well by decanting and gentle tapping before 30 µL of 0.5X Calcium 5 dye solution (0.5X FLIPR Calcium 5 dye (Molecular devices, R8186)); HBSS; 20mM HEPES; 2.5mM Probenecid; 0.025% Pluronic F-127; pH adjusted to 7.4) is added to each well and the plate is then incubated at 37°C for 30 minutes. For the assay the plate is equilibrated at room temperature for 10 minutes before placing it in the FLIPR. Compounds are dissolved in DMSO and serially diluted over an 11 point half log (3.16 fold) dilution (2 mM to 20 nM). Compounds are then diluted 1:50 in assay buffer (HBSS; 20mM HEPES; 2.5mM Probenecid; 0.05% gelatin; 0.1% BSA; pH adjusted to 7.4) just before performing the assay. Compounds are finally added to the respective wells of the cell plate (final assay concentration 10 µM to 100 pM) using the FLIPR (e.g. FLIPR-Tetra, Molecular Devices) and fluorescence readings are captured for 5 minutes. The increase in fluorescence from the basal reading in the presence of the compounds is compared with that of the control wells (wells having no compound) to calculate the activity of the compounds. The EC50 values of the compounds can be determined using e.g. Graph pad Prism software.
Assay method for measuring agonistic activity of compounds in hFPR2-Aq-CHO cell
Cryo-vial containing 6x10^6 cells (hFPR1-Gα15-CHO or hFPR2-Aq-CHO) was thawed in a 37°C water bath. Cells were suspended in 10ml of respective complete growth media (F12(1X)HAM media (Gibco; Cat#11765); 10% HI-FBS (Gibco; Cat#10082); 0.4 mg/ml Geneticin (Gibco; Cat#10131); 0.25 mg/ml Zeocin (Invitrogen; Cat#R25001)) in a 15ml centrifuge tube. The cell viability was checked with the help of Trypan Blue dye. Upon washing the cells, those were plated in a 384-well sterile clear bottom black plate (Greiner Bioone Cat# 781091) so that, each well contained 10,000 cells in 40µl complete growth media. The plate was incubated in a 5% CO2 incubator at 37°C for 18 hours. Before assay on the next day, the cell plating media was removed from each well of the plate by decanting and gentle tapping. 30µl of 0.5X Calcium 5 dye solution (0.5X FLIPR Calcium 5 dye (Molecular devices Cat# R8186); HBSS (Invitrogen; Cat#14025); 20mM HEPES (Sigma; Cat#H0887); 2.5mM Probenecid (Sigma; Cat#P8761); 0.025% Pluronic F-127 (Sigma; Cat#P2443); pH adjusted to 7.4) was added to each well. The plate was then incubated at 37°C for 30 minutes. Following which the plate was equilibrated at room temperature for 10 minutes before placing it in a 384 well FLIPR for assay. Compounds were dissolved in DMSO and serially diluted following 11 point half log (3.16 fold) dilution with a starting concentration of 2mM (Final assay concentration 10µM). Aliquots of above mentioned each dilution was mixed with assay buffer (HBSS (Invitrogen; Cat#14025); 20mM HEPES (Sigma; Cat#H0887); 2.5mM Probenecid (Sigma; Cat#P8761); 0.05% gelatin (Sigma; Cat#G1890); 0.1% BSA (Sigma; Cat#A3059); pH adjusted to 7.4) just before performing the assay. Compounds were added to the respective wells of the assay ready cell plate with the help of the FLIPR (FLIPR Tetra) and fluorescence readings were captured for 5 minutes to measure any agonistic response of the compounds. The increase in fluorescence readings from the basal reading in presence of the compounds were compared with that of the control wells (wells having no compound) to calculate the agonistic activity of the compounds. The EC50 values of the compounds were determined using the Graph pad Prism software.

Row | SMILES | pEC50
1 | COc1ccc([C@@H]2CN(C(=O)C3CCNCC3)CC[C@H]2NC(=O)Nc2ccc(Cl)cc2)nc1 (relative stereo) [Ex-88, trans-1-(4-chloro-phenyl)-3-[5-methoxy-1'-(piperidine-4-carbonyl)-1',2',3',4',5',6'-hexahydro-[2,3']bipyridinyl-4'-yl]-urea] | 8.92
2 | Cc1ccc(CN2CC[C@@H](NC(=O)Nc3ccc(Cl)cc3)[C@H](c3ccc(Cl)s3)C2)cn1 (relative stereo) [Ex-87, trans-1-(4-chlorophenyl)-3-[3-(5-chlorothiophen-2-yl)-1-[(6-methylpyridin-3-yl)methyl]piperidin-4-yl]urea] | 9.00
3 | O=C(Nc1ccccc1)N[C@@H]1CCN(C(=O)C2CCNCC2)C[C@H]1c1ccc(Cl)cn1 (relative stereo) [Ex-167, trans-1-[3-(5-Chloro-pyridin-2-yl)-1-(piperidine-4-carbonyl)-piperidin-4-yl]-3-phenyl-urea] | 7.07
4 | COCCCN1CC[C@@H](NC(=O)Nc2ccc(Cl)cc2)[C@H](c2ncc(OC)cc2F)C1 (relative stereo) [Ex-193, trans-1-(4-chlorophenyl)-3-[3-fluoro-5-methoxy-1'-(3-methoxy-propyl)-1',2',3',4',5',6'-hexahydro-[2,3']bipyridinyl-4'-yl]-urea] | 9.00
5 | COc1ccc([C@@H]2CN(Cc3cnn(C)c3)CC[C@H]2NC(=O)Nc2ccc(C#N)cc2)nc1 (relative stereo) [Ex-146, trans-1-(4-Cyano-phenyl)-3-[3-(5-methoxy-pyridin-2-yl)-1-[(1-methyl-1H-pyrazol-4-yl)-methyl]-piperidin-4-yl]-urea] | 8.70
6 | COc1ccc([C@@H]2CN(C(=O)C3COC3)CC[C@H]2NC(=O)Nc2ccc(Cl)cc2)nc1 (relative stereo) [Ex-92, trans-1-(4-chloro-phenyl)-3-[5-methoxy-1'-(oxetane-3-carbonyl)-1',2',3',4',5',6'-hexahydro-[2,3']bipyridinyl-4'-yl]-urea] | 8.40
7 | COc1ccc([C@@H]2CN(CC3(O)CCC3)CC[C@H]2NC(=O)Nc2ccc(Cl)cc2)nc1 (relative stereo) [Ex-220, trans-1-(4-chloro-phenyl)-3-[1'-(1-hydroxy-cyclobutylmethyl)-5-methoxy-1',2',3',4',5',6'-hexahydro-[2,3']bipyridinyl-4'-yl]-urea] | 9.40
8 | COc1ccc([C@@H]2CN(c3ccncn3)CC[C@H]2NC(=O)Nc2ccc(Cl)cc2)cn1 (relative stereo) [Ex-1, trans-1-(4-chloro-phenyl)-3-(6'-methoxy-1-pyrimidin-4-yl-1,2,3,4,5,6-hexahydro-[3,3']bipyridinyl-4-yl)-urea] | 8.22
9 | COc1ccc([C@@H]2CN(c3ccc(F)cc3)CC[C@H]2NC(=O)Nc2ccc(Cl)cc2)cn1 (relative stereo) [Ex-2, trans-1-(4-chloro-phenyl)-3-[1-(4-fluoro-phenyl)-6'-methoxy-1,2,3,4,5,6-hexahydro-[3,3']bipyridinyl-4-yl]-urea] | 7.96
10 | COc1ccc([C@H]2CN(CC(F)F)CC[C@@H]2NC(=O)Nc2cc(C)ns2)nc1 [Ex-214] | 9.10
11 | COc1ccc([C@@H]2CN(C(=O)C3CCN(C)CC3)CC[C@H]2NC(=O)Nc2ccc(Cl)cc2)nc1 (single isomer, unassigned) [Ex-188, trans-1-(4-chlorophenyl)-3-[3-(5-methoxypyridin-2-yl)-1-(1-methylpiperidine-4-carbonyl)piperidin-4-yl]urea] | 7.54
12 | COc1ccc([C@@H]2CN(C(=O)CN(C)C)CC[C@H]2NC(=O)Nc2ccc(Cl)cc2)nc1 (racemic) [Ex-94, trans-1-(4-chloro-phenyl)-3-[1'-(2-dimethylamino-acetyl)-5-methoxy-1',2',3',4',5',6'-hexahydro-[2,3']bipyridinyl-4'-yl]-urea] | 8.70
13 | COC1CCC(CN2CC[C@@H](NC(=O)Nc3ccc(Cl)cc3)[C@H](c3ccc(Cl)s3)C2)CC1 (relative stereo) [Ex-116, trans-1-(4-chloro-phenyl)-3-[3-(5-chloro-thiophen-2-yl)-1-(4-methoxy-cyclohexylmethyl)-piperidin-4-yl]-urea] | 8.05

Further lines, results first:

Row | pEC50 | SMILES
14 | 9.05 | COCCCN1CC[C@@H](NC(=O)Nc2ccc(Cl)cc2)[C@H](c2ccc(OC)cn2)C1 (racemic) [Ex-80, trans-1-(4-chloro-phenyl)-3-[5-methoxy-1'-(3-methoxy-propyl)-1',2',3',4',5',6'-hexahydro-[2,3']bipyridinyl-4'-yl]-urea]
15 | 8.89 | COc1ccc([C@@H]2CN(CC3(O)COC3)CC[C@H]2NC(=O)Nc2ccc(Cl)cc2)nc1 (relative stereo) [Ex-194, trans-1-(4-chloro-phenyl)-3-[1'-(3-hydroxy-oxetan-3-ylmethyl)-5-methoxy-1',2',3',4',5',6'-hexahydro-[2,3']bipyridinyl-4'-yl]-urea]
16 | 7.96 | COc1ccc([C@@H]2CN(Cc3cc(C)on3)CC[C@H]2NC(=O)Nc2ccc(Cl)cc2)nc1 (single isomer, unassigned) [Ex-29, trans-1-(4-chlorophenyl)-3-[3-(5-methoxypyridin-2-yl)-1-[(5-methyl-1,2-oxazol-3-yl)methyl]piperidin-4-yl]urea]
17 | 8.05 | COc1ccc([C@@H]2CN(CC3CC(C)(O)C3)CC[C@H]2NC(=O)Nc2ccc(Cl)cc2)nc1 (relative stereo) [Ex-207, trans-1-(4-chloro-phenyl)-3-[1'-(3-hydroxy-3-methyl-cyclobutylmethyl)-5-methoxy-1',2',3',4',5',6'-hexahydro-[2,3']bipyridinyl-4'-yl]-urea]
18 | 8.70 | COc1ccc([C@H]2CN(CCO)CC[C@@H]2NC(=O)Nc2ccc(Cl)cc2)nc1 [Ex-206]
19 | 9.15 | COc1ccc([C@@H]2CN(CC(C)(C)O)CC[C@H]2NC(=O)Nc2ccc(Cl)cc2)nc1 (single isomer, unassigned) [Ex-179, trans-1-(4-Chlorophenyl)-3-[1-(2-hydroxy-2-methyl-propyl)-3-(5-methoxy-pyridin-2-yl)-piperidin-4-yl]-urea]
20 | 9.00 | COc1ccc([C@@H]2CN(CCC(C)(C)C#N)CC[C@H]2NC(=O)Nc2ccc(Cl)cc2)nc1 (relative stereo) [Ex-144, trans-1-(4-Chlorophenyl)-3-[1-(3-cyano-3-methyl-butyl)-3-(5-methoxy-pyridin-2-yl)-piperidin-4-yl]-urea]
21 | 8.10 | COc1ccc([C@H]2CN(C(C)(C)C(N)=O)CC[C@@H]2NC(=O)Nc2ccc(Cl)cc2)nc1 [Ex-225]
22 | 9.15 | COCCCN1CC[C@@H](NC(=O)Nc2ccc(Cl)cc2)[C@H](c2ccc(OC)cn2)C1 (single isomer, unassigned) [Ex-191, trans-1-(4-chlorophenyl)-3-[1-(3-methoxypropyl)-3-(5-methoxypyridin-2-yl)piperidin-4-yl]urea]
23 | 9.52 | COc1ccc([C@@H]2CN(CC(N)=O)CC[C@H]2NC(=O)Nc2ccc(Cl)cc2)nc1 (single isomer, unassigned) [Ex-170, trans-2-[4-[[(4-Chlorophenyl)-carbamoyl]amino]-3-(5-methoxy-pyridin-2-yl)-piperidin-1-yl]-acetamide]
